Experimental data from PubChem BioAssay AID1259411 (Chemical Carcinogenesis Research Information System (CCRIS), 2018).
Calls of active or inactive are those of the source. The rule behind the calls is not given here.

System: rodent carcinogenicity bioassays, tumor incidence
Assay: CCRIS carcinogenicity studies
How it was run: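 Archive of carcinogenicity, mutagenicity, tumor promotion and tumor inhibition results drawn from journals, NCI reports and other sources, expert-reviewed; covers 1985-2011 and is no longer updated.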

C=O
carcinogen call (Species: Hamster, Strain/Sex: Syrian golden/Male (132/Control group; 88/Experimental group), Route: Inhalation, Dose: 10 ppm 5 hr/day, 5 d/wk for life, study duration was lifetime of the animal): inactive; negative
carcinogen call (Species: Mouse, Strain/Sex: B6C3F1/Female (120/Group with sacrifices at 6, 12 and 24 mo), Route: Inhalation, Dose: 0, 2, 6, 15 ppm 6 hr/d, 5 d/wk for 24 mo, study duration 24 mo, Dose: 0, 2, 6, 15 ppm 6 hr/d, 5 d/wk for 24 mo, study duration 24 mo): inactive; negative. dose-related non-neoplastic nasal lesions were observed.
carcinogen call (Species: Mouse, Strain/Sex: B6C3F1/Male (120/Group with sacrifices at 6, 12 and 24 mo), Route: Inhalation, Dose: 0, 2, 6, 15 ppm 6 hr/d, 5 d/wk for 24 mo, study duration 24 mo, Dose: 0, 2, 6, 15 ppm 6 hr/d, 5 d/wk for 24 mo, study duration 24 mo, Tumor Site: Type of Lesion: Nasal passages): active; positive. dose-related non-neoplastic nasal lesions also observed.
carcinogen call (Species: RAT, Strain/Sex: F344/FEMALE, Route: INHALATION, Dose: 0, 2, 6, 15 PPM, Dose: 0, 2, 6, 15 PPM, Tumor Site: Type of Lesion: NASAL TURBINATES: SQUAMOUS CELL CARCINOMA): active; positive
carcinogen call (Species: RAT, Strain/Sex: F344/MALE, Route: INHALATION, Dose: 0, 0.3, 2, 15 PPM 6 HR/D 5 D/WK FOR 28 MO (STUDY DURATION: 28 MO), Dose: 0, 0.3, 2, 15 PPM 6 HR/D 5 D/WK FOR 28 MO (STUDY DURATION: 28 MO), Tumor Site: Type of Lesion: NASAL CAVITY: SQUAMOUS CELL CARCINOMA, SQUAMOUS CELL PAPILLOMA): active; positive
carcinogen call (Species: RAT, Strain/Sex: F344/MALE, Route: INHALATION, Dose: 0, 2, 6, 15 PPM, Dose: 0, 2, 6, 15 PPM, Tumor Site: Type of Lesion: NASAL TURBINATES: SQUAMOUS CELL CARCINOMA): active; positive
carcinogen call (Species: RAT, Strain/Sex: SPRAGUE-DAWLEY/FEMALE, Route: ORAL, Dose: 0, 10, 50, 100, 500, 1000, 1500 PPM IN DRINKING WATER FOR 104 WK (STUDY DURATION: LIFETIME), Dose: 0, 10, 50, 100, 500, 1000, 1500 PPM IN DRINKING WATER FOR 104 WK (STUDY DURATION: LIFETIME), Tumor Site: Type of Lesion: LYMPHATIC SYSTEM: LEUKEMIA, GASTROINTESTINAL SYSTEM: TUMOR): active; positive
carcinogen call (Species: RAT, Strain/Sex: SPRAGUE-DAWLEY/MALE, Route: INHALATION, Dose: 14.2 PPM 6 HR/DAY, 5 DAY/WK, Tumor Site: Type of Lesion: NASAL CAVITY: SQUAMOUS CELL CARCINOMA): active; positive
carcinogen call (Species: RAT, Strain/Sex: SPRAGUE-DAWLEY/MALE, Route: ORAL, Dose: 0, 10, 50, 100, 500, 1000, 1500 PPM IN DRINKING WATER FOR 104 WK (STUDY DURATION: LIFETIME), Dose: 0, 10, 50, 100, 500, 1000, 1500 PPM IN DRINKING WATER FOR 104 WK (STUDY DURATION: LIFETIME), Tumor Site: Type of Lesion: LYMPHATIC SYSTEM: LEUKEMIA, GASTROINTESTINAL SYSTEM: TUMOR): active; positive
carcinogen call (Species: RAT, Strain/Sex: WISTAR/FEMALE, Route: ORAL, Dose: 0, 1.8, 21 MG/KG IN DRINKING WATER FOR UP TO 24 MO (STUDY DURATION: 105 WK), Dose: 0, 1.8, 21 MG/KG IN DRINKING WATER FOR UP TO 24 MO (STUDY DURATION: 105 WK)): inactive; negative
carcinogen call (Species: RAT, Strain/Sex: WISTAR/MALE, Route: INHALATION, Dose: 0, 0.1, 1.0, 10 PPM 6HR/D, 5D/WK FOR 3 MO (STUDY DURATION: 29 MO), Dose: 0, 0.1, 1.0, 10 PPM 6HR/D, 5D/WK FOR 3 MO (STUDY DURATION: 29 MO)): inactive; negative
carcinogen call (Species: RAT, Strain/Sex: WISTAR/MALE, Route: INHALATION, Dose: 0, 0.1, 1.0, 10 PPM 6HR/D, 5D/WK FOR 28 MO (STUDY DURATION: 29 MO), Dose: 0, 0.1, 1.0, 10 PPM 6HR/D, 5D/WK FOR 28 MO (STUDY DURATION: 29 MO)): inactive; negative
carcinogen call (Species: RAT, Strain/Sex: WISTAR/MALE, Route: ORAL, Dose: 0, 1.2, 15 MG/KG IN DRINKING WATER FOR UP TO 24 MO (STUDY DURATION: 105 WK), Dose: 0, 1.2, 15 MG/KG IN DRINKING WATER FOR UP TO 24 MO (STUDY DURATION: 105 WK)): inactive; negative

O=C1O[C@H]([C@@H](O)CO)C(O)=C1O
carcinogen call (Species: MOUSE, Strain/Sex: B6C3F1/FEMALE, Route: ORAL, Dose: 0, 25000, 50000 PPM IN DIET FOR 103 WK, Dose: 0, 25000, 50000 PPM IN DIET FOR 103 WK): inactive; negative
carcinogen call (Species: MOUSE, Strain/Sex: B6C3F1/MALE, Route: ORAL, Dose: 0, 25000, 50000 PPM IN DIET FOR 103 WK, Dose: 0, 25000, 50000 PPM IN DIET FOR 103 WK): inactive; negative
carcinogen call (Species: RAT, Strain/Sex: F344/FEMALE, Route: ORAL, Dose: 0, 25000, 50000 PPM IN DIET FOR 103 WK, Dose: 0, 25000, 50000 PPM IN DIET FOR 103 WK): inactive; negative
carcinogen call (Species: RAT, Strain/Sex: F344/MALE, Route: ORAL, Dose: 0, 1, 5, 7% IN DIET OF MALE RATS, PARENTAL GENERATION ALSO FED SODIUM ASCORBATE FOR 4 WK BEFORE MATING THEN CONTINUING I, Dose: 0, 1, 5, 7% IN DIET OF MALE RATS, PARENTAL GENERATION ALSO FED SODIUM ASCORBATE FOR 4 WK BEFORE MATING THEN CONTINUING I): inactive; negative
carcinogen call (Species: RAT, Strain/Sex: F344/MALE, Route: ORAL, Dose: 0, 25000, 50000 PPM IN DIET FOR 103 WK, Dose: 0, 25000, 50000 PPM IN DIET FOR 103 WK): inactive; negative
carcinogen call (Species: Rat, Strain/Sex: F344/Male (9-15/group), Route: Oral, Dose: 0, 1%, 1% with 0.2% sodium nitrite in diet for 32 wk, study duration 32 wk in surgically altered rats to produce chronic, Dose: 0, 1%, 1% with 0.2% sodium nitrite in diet for 32 wk, study duration 32 wk in surgically altered rats to produce chronic, Tumor Site: Type of Lesion: Esophagus examined): inactive; negative (significant increase in hyperplasia observed in combined chemical grou
carcinogen call (Species: Rat, Strain/Sex: Non-tg/Male, Route: Oral, Dose: 5% sodium ascorbate in diet, continuous, for 57 wk until sacrifice, Tumor Site: Type of Lesion: Total tumor-bearing animals (20.0% in experimental animals vs 25.0% in controls), no bladder tumors): inactive; negative. parallel experiment in hras128 rat line was conducted to determine bla

OCC(O)CCl (centres undefined)
carcinogen call (Species: Rat, Strain/Sex: Sprague-Dawley/Female, Route: Oral, Dose: 0, 25, 100, 400 ppm in drinking water for 2 yr (Study duration: 104 wk), Dose: 0, 25, 100, 400 ppm in drinking water for 2 yr (Study duration: 104 wk), Tumor Site: Type of Lesion: Kidney: Renal tubule adenoma or carcinoma): active; positive
carcinogen call (Species: Rat, Strain/Sex: Sprague-Dawley/Male, Route: Oral, Dose: 0, 25, 100, 400 ppm in drinking water for 2 yr (Study duration: 100 wk), Dose: 0, 25, 100, 400 ppm in drinking water for 2 yr (Study duration: 100 wk), Tumor Site: Type of Lesion: Kidney: Renal tubule adenoma or carcinoma, Testes: Leydig cell tumor): active; positive

O=S(=O)(O)OCc1c2ccccc2cc2c1ccc1ccccc12
carcinogen call (Species: RAT, Strain/Sex: SPRAGUE-DAWLEY/FEMALE, Route: SUBCUTANEOUS, Dose: 0, 0.2 UMOL IN SESAME OIL:DMSO (9:1) 3/WK FOR 20 DOSES (STUDY DURATION: 52 WK), Tumor Site: Type of Lesion: INJECTION SITE: SARCOMA): active; positive

O[C@@H]1c2ccccc2-c2nc3ccccc3cc2[C@H]1O
carcinogen call (Species: MOUSE, Strain/Sex: SWISS/FEMALE, Route: INTRAPERITONEAL, Dose: 0, 1.05 UMOL GIVEN AS 150 NMOL IN 5 µL DMSO WITHIN 24 HR OF BIRTH, 300 NMOL IN 10 µL DMSO ON D 8 OF LIFE, AND 600 NMOL I): inactive; negative
carcinogen call (Species: MOUSE, Strain/Sex: SWISS/MALE, Route: INTRAPERITONEAL, Dose: 0, 1.05 UMOL GIVEN AS 150 NMOL IN 5 µL DMSO WITHIN 24 HR OF BIRTH, 300 NMOL IN 10 µL DMSO ON D 8 OF LIFE, AND 600 NMOL I): inactive; negative

O=C1O[C@H]([C@H](O)CO)C(O)=C1O
carcinogen call (Species: MOUSE, Strain/Sex: B6C3F1/FEMALE, Route: ORAL, Dose: 0, 2.5, 5% IN DRINKING WATER FOR 96 WK (STUDY DURATION: 110 WK), Dose: 0, 2.5, 5% IN DRINKING WATER FOR 96 WK (STUDY DURATION: 110 WK)): inactive; negative
carcinogen call (Species: MOUSE, Strain/Sex: B6C3F1/MALE, Route: ORAL, Dose: 0, 1.25, 2.5% IN DRINKING WATER FOR 96 WK (STUDY DURATION: 110 WK), Dose: 0, 1.25, 2.5% IN DRINKING WATER FOR 96 WK (STUDY DURATION: 110 WK)): inactive; negative
carcinogen call (Species: RAT, Strain/Sex: F344/FEMALE, Route: ORAL, Dose: 0, 1.25%, 2.5% IN TAP DRINKING WATER FOR 104 WK (STUDY DURATION: LIFESPAN), Dose: 0, 1.25%, 2.5% IN TAP DRINKING WATER FOR 104 WK (STUDY DURATION: LIFESPAN)): inactive; negative
carcinogen call (Species: RAT, Strain/Sex: F344/MALE, Route: ORAL, Dose: 0, 1.25%, 2.5% IN TAP DRINKING WATER FOR 104 WK (STUDY DURATION: LIFESPAN), Dose: 0, 1.25%, 2.5% IN TAP DRINKING WATER FOR 104 WK (STUDY DURATION: LIFESPAN)): inactive; negative
